Consider 10 molecules from article PMC5470083 (Molecular imaging, 2016).

Where two headings read alike, the source gives them in different places.

One assay addresses tau (NFTs) (Homo sapiens, UniProt P10636). The class given is binding. The note with it: 1 µmol/L compound; tracer 10 nmol/L [18F]T808; human AD slices; n = 3.
For another assay, the target named is amyloid plaques (Homo sapiens, UniProt P05067). The class given is binding.
A further assay concerns the target PHF tau (Homo sapiens, UniProt P10636). The class given is binding.
The next assay has as its target Aβ (Homo sapiens, UniProt P05067). Put plainly: In vitro autoradiography binding inhibition of [11C]PiB on human AD brain slices.
Setting [1] is: read-out: % Block ± SD of tracer binding.

Aβ, sequence (P05067 672-711 limits assumed): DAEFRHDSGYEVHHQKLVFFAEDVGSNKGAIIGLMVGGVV
amyloid plaques, sequence (P05067 672-711 limits assumed): as above
PHF tau, sequence (P10636 623-695 limits assumed): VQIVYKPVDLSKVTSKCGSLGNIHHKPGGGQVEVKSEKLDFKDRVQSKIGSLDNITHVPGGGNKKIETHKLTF
tau (NFTs), sequence (P10636 623-708 limits assumed): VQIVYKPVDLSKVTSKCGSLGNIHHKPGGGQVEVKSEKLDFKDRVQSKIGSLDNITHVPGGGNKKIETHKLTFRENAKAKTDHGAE

As for “2-[4-(4-Fluorophenyl)phenyl]-1,3-benzothiazole [TAU3]”, the “% Block ± SD of tracer binding” value on tau (NFTs) amounted to 29 ± 0.1%.
As to `COc1ccc(CCN2CCC(Nc3nc4ccccc4n3Cc3ccc(F)cc3)CC2)cc1` [Astemizole], the Ki is more than 4.4 µM at amyloid plaques and more than 4 µM at PHF tau.
`Cc1c(OCC(F)(F)F)ccnc1C[S+]([O-])c1nc2ccccc2[nH]1` (stereo not shown) [Lansoprazole]: the Ki on amyloid plaques was more than 4.4 µM; at PHF tau, more than 4 µM.
Turning to `[11CH3]Nc1ccc(-c2nc3ccc(O)cc3s2)cc1` [PiB, 2-[4-([^11C]methylamino)phenyl]benzothiazol-6-ol], the “% Block ± SD of tracer binding” value at Aβ (1 µmol/L compound, tracer 13 nmol/L [11C]PiB, human AD slices, n = 3) turned out to be 57 ± 0.0%. For the same molecule, on PHF tau, the Ki stood at 0.129 µM.
Regarding `COc1ccc(-c2csc(NN=Cc3ccccc3)n2)cc1` [TAU4, 1-Benzylidene-2-(4-(4-methoxyphenyl)thiazol-2-yl)hydrazine], the Ki on amyloid plaques is more than 4.4 µM; at PHF tau it was more than 4 µM.
Turning to `COc1ccc(-c2csc(NN=Cc3ccccn3)n2)cc1` [TAU5, 2-(4-(4-Methoxyphenyl)thiazol-2-yl)-1-((pyridin-2-yl)methylene)hydrazine], the Ki at amyloid plaques was more than 4.4 µM; at PHF tau, more than 4 µM.
In the case of `COc1ccc(-c2ccc3c(c2)[nH]c2ccncc23)cn1` [TAU6, 2-Methoxy-5-{5H-pyrido[4,3-b]indol-7-yl}pyridine], the inhibition at 1 µM on Aβ (setting [1]) is 0%; on Aβ (read-out: Inhibition of [11C]PiB binding, summary statements) it was less than 17%. The Ki at amyloid plaques is more than 4.4 µM; on PHF tau, more than 4 µM.
Take `COc1ccc(-c2ccc3c(c2)[nH]c2ccncc23)cc1` [TAU7, 7-(4-Methoxyphenyl)-5H-pyrido[4,3-b]indole]: the inhibition at 1 µM at Aβ (setting [1]) worked out at 0%. Moreover, the Ki at amyloid plaques was 0.0049 µM; on PHF tau, 0.014 µM.
For `COC(=O)c1ccc(-c2ccc3c(c2)[nH]c2ccncc23)cn1` [TAU8, Methyl 5-{5H-pyrido[4,3-b]indol-7-yl}pyridine-2-carboxylate], in that order: 0%, more than 4.4 µM and more than 4 µM.
As for “Methyl 2-(4-nitrophenyl)benzo[d]thiazole-6-carboxylate [TAU2]”, the “% Block ± SD of tracer binding” value at tau (NFTs) is recorded as 48 ± 0.0%.
